The source of these data is article PMC9060145 (Skin Health and Disease, 2021).

Data set [1] has as its target T1, CYP2C8 (Homo sapiens, UniProt P10632).
T1 sequence (P10632 1-490): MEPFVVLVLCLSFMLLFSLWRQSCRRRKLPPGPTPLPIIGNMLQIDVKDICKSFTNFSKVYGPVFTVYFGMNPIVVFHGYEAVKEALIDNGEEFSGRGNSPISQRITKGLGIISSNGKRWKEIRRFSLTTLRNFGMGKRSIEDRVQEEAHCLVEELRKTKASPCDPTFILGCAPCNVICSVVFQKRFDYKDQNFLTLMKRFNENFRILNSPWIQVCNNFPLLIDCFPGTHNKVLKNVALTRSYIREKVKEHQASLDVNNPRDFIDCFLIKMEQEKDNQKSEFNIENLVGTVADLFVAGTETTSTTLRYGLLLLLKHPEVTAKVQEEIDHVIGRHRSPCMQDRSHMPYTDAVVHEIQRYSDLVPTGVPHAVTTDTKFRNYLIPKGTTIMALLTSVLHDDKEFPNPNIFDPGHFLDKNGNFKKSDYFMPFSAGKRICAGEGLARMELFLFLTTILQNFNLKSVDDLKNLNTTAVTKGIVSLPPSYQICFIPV
The experiment in a line: Qualitative CYP2C8 screening, Vivid CYP2C8 Green kit, fluorimetry. It counts as biochemical. To be noted: recombinant CYP2C8 Baculosomes, probe Vivid DBOMF, 1 µM (1000 nM) compound, substrate DBOMF. Set-up: purchased Life Technologies; host or cells: Baculosomes. On the procedure:
CYP450 inhibition assays (excluding CYP19 and 1 µM CYP2C8) were performed as previously described.[31] Substrate metabolite formation was measured by HPLC‐MS/MS. Percent of control activity was determined by comparing metabolite peak areas with and without test compound. Qualitative screening of CYP2C8 (1 µM) and CYP19 is described in detail in Supporting Information. Reference compound IC50 values were determined by non‐linear regression analysis using Hill equation curve fitting.
A kinetic reaction was carried out for CYP2C8 screening in triplicate according to the Vivid? CYP450 Screening Kit manual protocol (MAN0003095). Briefly, a master pre-mix composed of CYP2C8 Baculosomes®, regeneration system of human P450 reductase/human cytochrome b5, and reaction buffer was prepared before adding 50 µL to each well in a black 96-well plate. Test compounds, positive inhibition control, and solvent controls were prepared as a 2.5X concentration with DMSO in reaction buffer of which 40 µL was dispensed into the 96-well plate. […] The test samples were pre-incubated at 37 °C for 15 min in the fluorescent microplate reader before adding a 10 µL mixture of substrate and NADP^+. Immediately, the plate was read at 2 min intervals over a 30 min time period at 37 °C. The raw data in relative fluorescent units (RFU) was analyzed according to the kinetic assay mode as outlined in the published protocol.

Data set [2] has as its target T1, CYP2C8. Put plainly: CYP450 inhibition assay, human liver microsomes. Set-up: from tissue; host or cells: human liver microsomes (per the earlier reading and the cited method). It counts as biochemical. The settings on record: substrate paclitaxel. For orientation: Liver microsomes are vesicles of endoplasmic reticulum, rich in cytochrome P450 enzymes.

Usually inhibition stands for how much of the control response was suppressed. With `CC(C)(O)c1ccccc1CC[C@@H](SCC1(CC(=O)O)CC1)c1cccc(/C=C/c2ccc3ccc(Cl)cc3n2)c1` [montelukast], the inhibition at 30 min, 1 µM on CYP2C8 [1] was 100%. Moreover, the “nH (hill coefficient)” value at CYP2C8 [2] stood at 0.6.
